These results are taken from patent US20230341376A1, “SYSTEM, METHOD, AND COMPUTER-ACCESSIBLE MEDIUM FOR PHENOTYPING OF SINGLE CELLS WITH MULTIPLEXED VIBRATIONAL PROBES” (The Trustees of Columbia University in the City of New York, priority 2020, published 2023).

Holding throughout (format): cell-based, human
For assay [1], the system named is HeLa cells. Nature of the assay: Endocytic pathway profiling by Rdots of various sizes and colors, whole-cell Raman. As to the method: Upon exposure to mammalian cells, PS beads have been reported to enter cells through endocytosis, subsequently reaching the endosomal components. (See, e.g., Reference A40). Although some of the endocytic pathways have been well established, their exact biological roles are still under investigation. (See, e.g., References A41, A42). […] (See, e.g., Reference A43). Motivated by the independent size and color tunability of Rdots, cellular endocytosis pathways were profiled by incubating cells with Rdots of different sizes and colors. Rdots of 40 nm (Rdot2207), 70 nm (Rdot2118), and 120 nm (Rdot2092) in diameter were incubated with HeLa cells, and their Raman peaks are designed to be mutually resolvable.
For whole-cell Raman acquisition, the corresponding Raman intensity is proportional to the number of internalized Rdots, since the Raman intensity of Rdots remains stable after exposed to cellular microenvironments. We therefore quantified the peak intensity to profile the differential mechanism of Rdots internalization. To this end, cells were first pre-treated with one of three inhibitors, chlorpromazine (CPZ), nystatin, and cytochalasin D (Cyto D). CPZ is a cationic amphiphilic drug used to block clathrin-mediated endocytosis. (See, e.g., Reference A44). Nystatin can decompose cholesterol and inhibit caveolae-mediated endocytosis. (See, e.g., Reference A45). Cyto D inhibits the polymerization of actin filaments, which is required for receptor-mediated endocytosis in mammalian cells. (See, e.g., Reference A46). Additionally, cells were incubated at 4° C. to inhibit energy-dependent endocytosis. Then endocytosis was examined by the quantification of internalized Rdots at the single-cell level. A distinctive response of Rdots internalization was detected when treated with various inhibitors (FIGS. 16E-G), and the radar plot was presented to highlight the fold change after inhibition (FIG. 16H). […] (See, e.g., Reference A47). […] (See, e.g., References A48, A49).
FIGS. 16A-16M show exemplary illustration of an exemplary endocytic profiling assay by multi-color Rdots. […] The peak position of each Rdots was indicated by the arrow. Excitation: 532 nm (400 mW), acquisition time: 1 s. FIGS. 16B-16D show exemplary SRS images of cellular distribution for three endocytic Rdots, (B) 40 nm (C) 70 nm (D) 120 nm, scale bar: 10 µm. […] Excitation: 532 nm (400 mW), acquisition time: 1 s. FIGS. 16J-L show exemplary histogram showing the Raman intensity distribution of three endocytic Rdots uptake by HeLa, SKBR3, and COS-7 cells, FIG. 16J - 40 nm, FIG. 16K - 70 nm, and FIG. 16L - 120 nm.

Assay [2] has as its system A375 cells. Particulars: for metabolic heterogeneity of lipid synthesis activity (Cv of single-cell d-PA metabolites): compared to untreated control group; for d-AA metabolites (protein synthesis activity): compared to untreated group. Here is the method: Deuterated branch-chained amino acids and deuterated palmitic acid were supplemented to the cell culture media for 24 hours in order to probe the flux of protein and lipid synthesis. There can be several considerations for choosing these two types of probes. First, protein and lipids can be the major components of cell dry mass and their metabolism can be tightly regulated. Second, Raman spectra of the metabolites of these two deuterated probes in cells can be shifted to the cell silent region (e.g., 2000 — 2300 cm-1), which facilitated the detection with high sensitivity in a background-free manner. (See, e.g., FIG. 8). Third, compared to non-branch-chained counterparts, branch-chained amino acids were chosen for their narrower Raman spectra in order to have better spectral differences from that of deuterated palmitic acid. (See, e.g., Reference 23; and FIGS. 9). With the high-throughput instrumentation efforts described above, Raman spectra of these two types of probes can be acquired as quickly as 0.5 s for the entire cell with a satisfactory signal to noise ratio. (See, e.g., FIG. 1B).
Previously, the single-cell metabolic measurement has been challenging. Previously-used methods, such as mass spectrometry, can be difficult to reveal single-cell level heterogeneity. (See, e.g., Reference 24). […] However, due to the complex nature of the Raman spectra, it can be difficult to assign each Raman peak in the fingerprint region to a specific chemical compound. (See, e.g., Reference 25). In addition, when dimension reduction approaches such as PCA can be applied, which can be a common practice for data analysis, the physical meanings of the dimension reduced data can be further lost. On the other hand, since the metabolic probes used have distinctive spectra, it can be straightforward to decompose the spectra in order to obtain the concentration information of each individual probe. Here the exemplary MCR-ALS method, (see, e.g., References 26-28), was used to decompose the composite spectra into the pure spectra of the two metabolic probes, and concentration profiles could thereby be obtained.
To validate the ability to reveal metabolic activity, the exemplary MAP was applied to cultured cells treated with drugs that inhibit known metabolism. Five drugs were used as the reference: cycloheximide and blasticidin, both inhibit protein translation; Triacsin C can be an inhibitor of long fatty acyl CoA synthetase; etoposide and cisplatin can be DNA replication inhibitors. MAP probes and individual drugs were added to the seeded A375 cells and allowed to incubate for 24 hours, after which the cells were fixed and Raman spectra were taken from each individual of the fixed single cells. At least 3 batches of each drug were prepared to ensure model robustness and reproducibility. MCR-ALS on the Raman spectra taken with MAP were applied, from which the concentration profiles of d-AA metabolites and d-PA metabolites in every single cell were calculated. (See, e.g., FIG. 2A).
Since MAP measures the metabolic activity in single cells, its potential in quantitatively characterizing single-cell metabolic heterogeneity was determined. The coefficients of variation (“Cv”) of the single-cell d-PA metabolites and d-AA metabolites distribution were calculated from the metabolic inhibitor-treated cells. (See, e.g., Reference 32). The Cv value can be a normalized measure of the dispersion of the single-cell metabolic activity distribution and thus it can be used as a parameter to quantify the metabolic heterogeneity. […] (See, e.g., FIG. 2C). […] (See, e.g., FIG. 2D).
For MAP samples, cells were first seeded in a 24-well plate at 50% confluency with cell culture media and allowed to adhere overnight. Then the culture media was replaced with MAP culture media (see Table 1 below) and cells were further cultured in MAP media for 24 hours. […]

Assay [3] has as its system SKBR3 cells. As to the method: Metabolic probes including ^13C-EdU, 17-ODYA, and ^13C-AA were first supplemented to cell culture media for 60 hours to report various metabolic activities. For endocytic profiling, cells were subsequently incubated with three Rdots for 6 hours. Then, seven functionalized Rdots cocktail was pooled to stain cell surface proteins simultaneously. Prior to the spectral acquisition, AltQ2 probe was added to live cells. Single-cell Raman spectra of SKBR3 cells were acquired with 1 second acquisition time (see FIG. 17C). To decipher the contribution of individual Raman probes, the amide region (1500 cm^-1-1700 cm-^1) and cell-silent region (2000 cm^-1 - 2300 cm-^1) were linearly decomposed by using the reference spectral profiles of each probe (see FIG. 17D) (See, e.g., References A54-A56). The unmixing procedure was applied on single-cell Raman spectra (see FIG. 17E). […] (See, e.g., References A25, A26).
Cell-based profiling techniques are increasingly being used in drug discovery to monitor cell response upon drug treatment. (See, e.g., Reference A57). Optical techniques have unique advantages by allowing non-invasive, fast, and cost-effective readouts of individual living cells. (See, e.g., Reference A58). However, most high-content profiling assays have been primarily focusing on partial aspects of biological phenotypes. (See, e.g., Reference A59). Integration of different phenotypes will facilitate a more systematic understanding of the mechanism of drug candidates. (See, e.g., Reference A60). […] Trastuzumab is a HER2-targeted monoclonal antibody developed for clinical use in breast cancer patients. (See, e.g., Reference A61). Hydrogen peroxide (H2O2) is well known as a major member of reactive oxygen species (ROS). (See, e.g., Reference A62). Cycloheximide (CHX) exerts its action by inhibiting protein synthesis. (See, e.g., Reference A63). Cyto D causes the disruption of actin filaments and inhibition of actin polymerization. (See, e.g., Reference A64). Cisplatin is an inhibitor of DNA synthesis and cell growth. (See, e.g., Reference A65). After labeling with 14 Raman probes, single-cell Raman spectra of SKBR3 cells under treatment of five chemotherapy reagents, as well as untreated cells, were acquired through the automated whole-cell Raman micro-spectroscopy (see FIG. 18B).
SKBR3 cells were seeded onto 18 mm round quartz coverslips (Electron Microscopy Sciences, 103302-258) and then maintained in a culture environment for 48 hours to reach 90% confluence. Then the culture medium was replaced with ^13C-AA DMEM containing 200 µM 17-ODYA and 50 nM ^13C-EdU for 60 hours. For the drug testing samples, cells were subject to the drug treatment simultaneously (see Table 5 for specific drug concentration). Followed by three rounds of gentle washing of DPBS buffer, cells were subsequently incubated with three-colored endocytic Rdots at 1 nM in serum-free DMEM medium. 6 hours later, cell surface markers were stained with seven-colored Rdots at a concentration of 10 nM for 1 hour on ice. After that, cells were washed extensively with DPBS buffer with 5 mM MgCl2 and 1% BSA. Then cells were rinsed with DPBS buffer with 5 mM MgCl2 and 40 µM AltQ2 before mounting onto the microscope for Raman measurement. Spectral unmixing was performed through the Least Square Method (LSM).

The mark [4] stands for this setting: drug 60 hours, normalized to control.

In the case of `C[C@@H]1[C@H](O)[C@@H](C)/C=C/C=C/CC/C=C/C=C/C=C/C=C/C(O[C@H]2O[C@H](C)[C@@H](O)[C@H](N)[C@@H]2O)CC2O[C@](O)(CC(O)C(O)CCC(O)CC(O)CC(O)CC(=O)O[C@H]1C)CC(O)C2C(=O)O` (stereo partly drawn) [nystatin], the “internalization of 120 nm Rdots after inhibitor pre-treatment” value in assay [1] (Rdot2092 (120 nm)) is recorded as “inhibited”. Further, in assay [1] (Rdot2118 (70 nm)), the “internalization of 70 nm Rdots after inhibitor pre-treatment” value is listed as “inhibited”. For the same compound, the “internalization of 40 nm Rdots after inhibitor pre-treatment” value in assay [1] (Rdot2207 (40 nm)) is “unaltered or even slightly higher”. The “Rdots uptake (40 nm, 70 nm and 120 nm Rdots) after inhibitor pre-treatment” value in assay [1] (single-cell Raman intensity of internalized Rdots) is “decreased as size increases”.
On to `CCC/C=C/C/C=C/C=C/C=N/NN=O` [triacsin C, Triacsin C], for which the “metabolic heterogeneity of protein synthesis activity (Cv of single-cell d-AA metabolites)” value in assay [2] (24 hours drug, compared to control group) is reported as “unaltered Cv value”. The “metabolic heterogeneity of lipid synthesis activity (Cv of single-cell d-PA metabolites)” value in assay [2] (24 hours drug) is recorded as “did not change the metabolic heterogeneity”. For the same compound, the “d-PA metabolites (lipid synthesis activity)” value in assay [2] (drug plus MAP probes 24 hours, compared to untreated cells) is reported as “significant loss”. Also, in assay [2] (drug plus MAP probes 24 hours), the “d-AA metabolites (protein synthesis activity)” value was “decrease in protein synthesis activity”.
For the compound `CN(CC[C@H](N)CC(=O)N[C@H]1C=C[C@H](n2ccc(N)nc2=O)O[C@@H]1C(=O)O)C(=N)N` [blasticidin], the “metabolic heterogeneity of lipid synthesis activity (Cv of single-cell d-PA metabolites)” value in assay [2] (24 hours drug) was “did not alter the lipid synthesis activity distribution”. Also, the “d-AA metabolites (protein synthesis activity)” value in assay [2] (drug plus MAP probes 24 hours) is “significant decrease”.
On to `COc1cc([C@@H]2c3cc4c(cc3[C@@H](O[C@@H]3O[C@@H]5CO[C@@H](C)O[C@H]5[C@H](O)[C@H]3O)[C@H]3COC(=O)[C@H]23)OCO4)cc(OC)c1O` [etoposide], for which the “metabolic heterogeneity of lipid synthesis activity (Cv of single-cell d-PA metabolites)” value in assay [2] (24 hours drug) is given as “significantly decreased lipid synthesis heterogeneity”.
Same read-out and setting: next, `N.N.[Cl][Pt][Cl]` [cisplatin]: “significantly decreased lipid synthesis heterogeneity”.
In the case of `C[C@@H]1C[C@@H]([C@H](O)CC2CC(=O)NC(=O)C2)C(=O)[C@@H](C)C1` [cycloheximide], the “internalization of AltQ2” value in assay [3] (drug 60 hours) is “increased internalization”. For the same compound, the “DNA synthesis (13C-EdU probe)” value in assay [3] (setting [4]) is given as “interfere with the process other than protein synthesis such as DNA synthesis”. In addition, the “metabolic heterogeneity of lipid synthesis activity (Cv of single-cell d-PA metabolites)” value in assay [2] (24 hours drug) was “did not alter the lipid synthesis activity distribution”. In addition, in assay [2] (drug plus MAP probes 24 hours), the “d-AA metabolites (protein synthesis activity)” value is “significant decrease”.
With `OO` [H2O2, Hydrogen peroxide], in assay [3] (drug 60 hours), the “cellular internalization of Rdots of 70 nm” value is “promoted”, the “cellular internalization of Rdots of 120 nm” value is “promoted”, the “fatty acid turnover phenotype (17-ODYA probe)” value was “retarding their turnover rate” and the “internalization of AltQ2” value was “increased internalization”.
Turning to `C=C1[C@@H](C)[C@H]2[C@H](Cc3ccccc3)NC(=O)[C@]23[C@H](OC(C)=O)/C=C/[C@@](C)(O)C(=O)[C@@H](C)C/C=C/[C@H]3[C@@H]1O` [Cyto D, cytochalasin D], in assay [3] (drug 60 hours), the “CD44 surface expression (Rdot2079-CD44)” value is “suppresses CD44 surface expression” and the “internalization of AltQ2” value is reported as “increased internalization”. Besides, in assay [3] (setting [4]), the “DNA synthesis (13C-EdU probe)” value is recorded as “inhibits” and the “protein synthesis (13C-AA probe)” value is reported as “inhibits”. For the same compound, the “cellular internalization of Rdots” value in assay [3] (long-term drug treatment) is recorded as “promote cellular internalization of Rdots”. Also, in assay [1] (60 hours), the “cellular uptake of Rdots, incubation with inhibitor for 60 hours” value is listed as “markedly promoted”. Also, the “Rdots internalization, short-term inhibitor incubation” value in assay [1] (short-term incubation (6 hours per FIG. 16 legend)) is “suppressed”.
